# From US12252477B2, “Applications of known and novel cannabinoids” (Bessor Pharma, LLC, priority 2018, dated 2025)
# Biological target: T1, TRPV1 channels (Homo sapiens, UniProt Q8NER1)
# T1 construct: expressed in transfected cells; host or cells: HEK TRex (HEK 293 T-REx) cells stably carrying a tetracycline-inducible TRPV1 transgene
# Assay: Calcium assay (Fluo-4) in HEK-TRPV1 cells, dose response comparison
# Type: cell-based
# Settings: Fluo-4 loaded, 1 mM external calcium chloride, 0-20 seconds baseline, compound added at 20 seconds, FIGS. 1A-1D
# Experimental: Molecular Pharmacology, 2016, volume 90, pages 300-308) HEK 293 cells with TRPV1 channels have been used as model systems (P. Geppetti and M. Trevisani, Activation and sensitisation of the vanilloid receptor: role in gastrointestinal inflammation and function, British Journal of Pharmacology, 2004, volume 141, pages 1313-1320);
# HEK TRexTRPV1 cultured in DMEM, 10% Fetal Bovine Serum, 2 mM L-glutamine, 10 microgramg/ml Blasticidin (Calbiochem, San Diego Calif.), […] Zeocin (InvivoGen, San Diego Calif.), followed by inducing indicated transgene expression using 1 microgram/ml Tetracycline for 16-24 hrs. Comparisons made to untransfected HEK cells or HEKTRexTRPV1 with or without induction.
# Cells washed and incubated with 0.2 micromolar Fluo-4 [54] for 30 minutes at 37° C. in a standard modified Ringer's solution of the following composition (in mM): NaCl 145, KCl 2.8, CsCl 10, CaCl2 10, MgCl2 2, glucose 10, Hepes. NaOH 10, pH 7.4, 330 mOsm. Cells transferred to 96-well plates at 50,000 cells/well and stimulated as indicated. Calcium signals acquired using a Flexstation 3 (Molecular Devices, Sunnydale, USA). Data are analyzed according to the methods in 1. Diaz-Franulic, J. Caceres-Molina, R. V. Sepulveda, F. Gonzalez-Nilo, R. Latorre, Structure-Driven Pharmacology of Transient Receptor Potential Channel Vanilloid 1, Molecular Pharmacology, 2016, volume 90, pages 300-8. […]
# T1 sequence (Q8NER1 whole entry): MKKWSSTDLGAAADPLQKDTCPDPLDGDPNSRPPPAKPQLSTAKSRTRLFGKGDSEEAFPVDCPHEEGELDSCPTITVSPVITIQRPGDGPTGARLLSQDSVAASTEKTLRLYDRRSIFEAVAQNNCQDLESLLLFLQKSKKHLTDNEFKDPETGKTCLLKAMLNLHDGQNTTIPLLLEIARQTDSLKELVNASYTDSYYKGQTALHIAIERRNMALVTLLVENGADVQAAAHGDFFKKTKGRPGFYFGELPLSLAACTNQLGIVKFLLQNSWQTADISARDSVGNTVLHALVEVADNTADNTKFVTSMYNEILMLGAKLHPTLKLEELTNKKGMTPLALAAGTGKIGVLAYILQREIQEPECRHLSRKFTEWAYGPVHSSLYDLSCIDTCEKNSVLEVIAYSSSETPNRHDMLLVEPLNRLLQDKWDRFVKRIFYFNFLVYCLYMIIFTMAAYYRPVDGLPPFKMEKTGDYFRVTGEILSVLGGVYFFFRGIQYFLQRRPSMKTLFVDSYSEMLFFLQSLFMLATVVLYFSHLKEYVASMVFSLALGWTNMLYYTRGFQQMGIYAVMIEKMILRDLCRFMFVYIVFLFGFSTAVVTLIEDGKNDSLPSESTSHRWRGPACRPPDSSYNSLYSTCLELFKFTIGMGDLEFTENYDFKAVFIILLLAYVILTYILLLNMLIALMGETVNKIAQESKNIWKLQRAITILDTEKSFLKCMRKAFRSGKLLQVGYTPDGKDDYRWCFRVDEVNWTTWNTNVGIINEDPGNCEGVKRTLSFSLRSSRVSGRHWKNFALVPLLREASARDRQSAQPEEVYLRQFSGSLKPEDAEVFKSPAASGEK
compound,measurement,value
"C=C(C)[C@@H]1CCC(C)=C[C@H]1c1c(O)cc(CCCCC)cc1O [cannabidiol (11, CBD), Cannabidiol]","“biological finger print” and dose response on TRPV 1 channels (calcium signal), synthesized versus reference standard cannabidiol",same “biological finger print” and dose response
